From PubChem BioAssay (NCI)
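GI50 marks 50% less growth. The concentration for full growth arrest is given as TGI.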

How the values were obtained:
Experiment in all cases: NCI-60 cell line screen, 384-well format
[1] = tested on: LOX IMVI melanoma
[2] = tested on: NCI-H322M lung
[3] = tested on: KM12 colon
[4] = tested on: SK-OV-3 ovarian
[5] = tested on: OVCAR-3 ovarian
[6] = tested on: MDA-MB-435 melanoma
[7] = tested on: MCF7 breast
[8] = tested on: HOP-92 NSCLC
[9] = tested on: SW-620 colon
[10] = tested on: CCRF-CEM leukemia
[11] = tested on: HOP-62 NSCLC
[12] = tested on: HCT-116 colon
[13] = tested on: BT-549 breast

Q: `CC[C@H](NC(=O)[C@H](CS(=O)(=O)CC1CC1)N[C@@H](c1ccc(F)cc1)C(F)(F)F)C(=O)C(=O)NC1CC1` was tested. Which GI50 [1] did it give?
A: > 100 µM

Q: And the TGI [1]?
A: > 100 µM

Q: And the GI50 [2]?
A: > 100 µM

Q: And the TGI [2]?
A: > 100 µM

Q: And the GI50 [3]?
A: > 100 µM

Q: What about the TGI [3] of the same compound?
A: > 100 µM

Q: What about the GI50 [4] of the same compound?
A: > 100 µM

Q: And the TGI [4]?
A: > 100 µM

Q: What about the GI50 [5] of the same compound?
A: > 100 µM

Q: And the TGI [5]?
A: > 100 µM

Q: And the GI50 [6]?
A: > 100 µM

Q: What about the TGI [6] of the same compound?
A: > 100 µM

Q: What about the GI50 [7] of the same compound?
A: 97.5 µM

Q: And the TGI [7]?
A: > 100 µM

Q: And the GI50 [8]?
A: > 100 µM

Q: And the TGI [8]?
A: > 100 µM

Q: And the GI50 [9]?
A: > 100 µM

Q: And the TGI [9]?
A: > 100 µM

Q: What about the GI50 [10] of the same compound?
A: 60.9 µM

Q: And the TGI [10]?
A: > 100 µM

Q: What about the GI50 [11] of the same compound?
A: 98.8 µM

Q: And the TGI [11]?
A: > 100 µM

Q: And the GI50 [12]?
A: > 100 µM

Q: And the TGI [12]?
A: > 100 µM

Q: And the GI50 [13]?
A: > 100 µM

Q: And the TGI [13]?
A: > 100 µM
